For orientation: Ki means the equilibrium dissociation constant of an inhibitor or competing ligand from its target.

The results in this text go back to US10590140B2, “Tetrahydropyrimidodiazepine and dihydropyridodiazepine compounds for treating pain and pain related conditions” (ESTEVE PHARMACEUTICALS, S.A., priority 2016, dated 2020).

The target in the test is human α2δ-1 subunit of Cav2.2 calcium channel (Homo sapiens (Human), UniProt P54289). As to the kind of experiment: Binding assay to human α2δ-1 subunit of Cav2.2 calcium channel ([3H]-Gabapentin). As to conditions: binding to α2δ-1, [3H]-Gabapentin; read-out: Ki (nM) α2δ-1. A digest of the protocol: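 [3H]-gabapentin binding, 60 min at 27° C; nonspecific binding defined with 10 μM pregabalin. Terminated by filtration on PEI-presoaked GF/C filters, ice-cold 50 mM Tris-HCl pH 7.4 washes, then scintillation counting.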
human α2δ-1 subunit of Cav2.2 calcium channel, sequence (P54289 25-1103): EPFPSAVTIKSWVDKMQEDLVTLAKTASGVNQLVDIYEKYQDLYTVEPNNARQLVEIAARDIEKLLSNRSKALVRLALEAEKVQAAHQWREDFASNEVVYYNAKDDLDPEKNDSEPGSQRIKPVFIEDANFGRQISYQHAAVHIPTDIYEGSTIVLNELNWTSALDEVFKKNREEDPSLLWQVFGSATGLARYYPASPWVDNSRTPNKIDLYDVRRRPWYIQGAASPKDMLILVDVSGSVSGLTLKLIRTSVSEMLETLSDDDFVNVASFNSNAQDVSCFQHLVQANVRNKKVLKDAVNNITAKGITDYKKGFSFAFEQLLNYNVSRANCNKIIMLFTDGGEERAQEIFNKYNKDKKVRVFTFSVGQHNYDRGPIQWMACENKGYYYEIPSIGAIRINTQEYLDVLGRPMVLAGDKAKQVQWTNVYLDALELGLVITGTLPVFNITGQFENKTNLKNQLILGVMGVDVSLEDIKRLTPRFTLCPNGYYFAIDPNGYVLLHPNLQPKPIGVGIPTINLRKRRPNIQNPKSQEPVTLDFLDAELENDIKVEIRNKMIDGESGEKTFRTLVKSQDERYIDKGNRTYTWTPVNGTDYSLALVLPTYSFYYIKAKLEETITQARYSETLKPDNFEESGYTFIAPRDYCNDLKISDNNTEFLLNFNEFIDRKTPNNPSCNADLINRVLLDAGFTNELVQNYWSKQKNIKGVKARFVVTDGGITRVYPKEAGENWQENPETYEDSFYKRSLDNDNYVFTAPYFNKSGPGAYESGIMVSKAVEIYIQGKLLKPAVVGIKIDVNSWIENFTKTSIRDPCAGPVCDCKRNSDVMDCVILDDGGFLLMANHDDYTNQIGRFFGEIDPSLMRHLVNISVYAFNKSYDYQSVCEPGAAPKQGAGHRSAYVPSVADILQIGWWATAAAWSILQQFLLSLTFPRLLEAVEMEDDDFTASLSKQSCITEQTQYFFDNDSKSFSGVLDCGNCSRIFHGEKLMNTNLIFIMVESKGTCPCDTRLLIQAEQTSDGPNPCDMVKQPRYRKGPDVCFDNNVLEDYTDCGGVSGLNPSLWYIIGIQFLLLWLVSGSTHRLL
`CCNc1ncc2c(n1)N(C)CCN(c1cccc(CO[C@H](CCN(C)C(=O)OC(C)(C)C)c3cccs3)c1)C2=O` [Example 84, tert-butyl (R)-(3-((3-(2-(ethylamino)-9-methyl-5-oxo-5,7,8,9-tetrahydro-6H-pyrimido[4,5-e][1,4]diazepin-6-yl)benzyl)oxy)-3-(thiophen-2-yl)propyl)(methyl) carbamate]: the Ki is greater than 3000 nM.
Next, `CCNc1ncc2c(n1)N(C)CCN(c1cccc(CO[C@@H](CCN(C)C(=O)OC(C)(C)C)c3cccs3)c1)C2=O` [Example 85, tert-butyl (S)-(3-((3-(2-(ethylamino)-9-methyl-5-oxo-5,7,8,9-tetrahydro-6H-pyrimido[4,5-e][1,4]diazepin-6-yl)benzyl)oxy)-3-(thiophen-2-yl)propyl)(methyl) carbamate]: greater than 3000 nM; `CCNc1ncc2c(n1)N(C)CCN(c1cccc(COCC(c3ccccc3)N(C)C(=O)OC(C)(C)C)c1)C2=O` (centres unmarked) [Example 86, tert-butyl (2-((3-(2-(ethylamino)-9-methyl-5-oxo-5,7,8,9-tetrahydro-6H-pyrimido[4,5-e][1,4]diazepin-6-yl)benzyl)oxy)-1-phenylethyl)(methyl) carbamate]: greater than 3000 nM.
Next, `CCNc1ncc2c(n1)N(C)CCN(c1cccc(COC(CN(C)C(=O)OCC[Si](C)(C)C)c3ccccc3)c1)C2=O` (centres unmarked) [Example 87, 2-(trimethylsilyl)ethyl (2-((3-(2-(ethylamino)-9-methyl-5-oxo-5,7,8,9-tetrahydro-6H-pyrimido[4,5-e][1,4]diazepin-6-yl)benzyl)oxy)-2-phenylethyl)(methyl) carbamate]: greater than 3000 nM; `CCNc1ncc2c(n1)N(C)CCN(c1cccc(OCCCN(C)C(=O)OC(C)(C)C)c1)C2=O` [Example 88, tert-butyl (3-(3-(2-(ethylamino)-9-methyl-5-oxo-5,7,8,9-tetrahydro-6H-pyrimido[4,5-e][1,4]diazepin-6-yl)phenoxy)propyl) (methyl)carbamate]: greater than 3000 nM.
Next, `CCNc1ncc2c(n1)N(C)CCN(c1cccc(OCCCN(Cc3ccccc3)C(=O)OC(C)(C)C)c1)C2=O` [Example 89, tert-butyl benzyl (3-(3-(2-(ethylamino)-9-methyl-5-oxo-5,7,8,9-tetrahydro-6H-pyrimido[4,5-e][1,4]diazepin-6-yl)phenoxy)propyl) carbamate]: greater than 3000 nM; `CCNc1ncc2c(n1)N(C)CCN(c1cccc(OCCN(C)C(=O)OC(C)(C)C)c1)C2=O` [Example 90, tert-butyl (2-(3-(2-(ethylamino)-9-methyl-5-oxo-5,7,8,9-tetrahydro-6H-pyrimido[4,5-e][1,4]diazepin-6-yl)phenoxy)ethyl) (methyl)carbamate]: greater than 3000 nM.
For the compound `CCNc1ncc2c(n1)N(C)CCN(c1cccc(CCCN(C)C(=O)OC(C)(C)C)c1)C2=O` [Example 91, tert-butyl (3-(3-(2-(ethylamino)-9-methyl-5-oxo-5,7,8,9-tetrahydro-6H-pyrimido[4,5-e][1,4]diazepin-6-yl)phenyl)propyl) (methyl)carbamate], the Ki is greater than 3000 nM.
In the case of `CCNc1ncc2c(n1)N(C)CCN(c1cccc(CCN(C)C(=O)OC(C)(C)C)c1)C2=O` [Example 92, tert-butyl (3-(2-(ethylamino)-9-methyl-5-oxo-5,7,8,9-tetrahydro-6H-pyrimido[4,5-e][1,4]diazepin-6-yl)phenethyl)(methyl) carbamate] it was greater than 3000 nM; in that of `CCNc1ncc2c(n1)N(C)CCN(c1cccc(C(C)(C)CN(C)C(=O)OC(C)(C)C)c1)C2=O` [Example 93, tert-butyl (2-(3-(2-(ethylamino)-9-methyl-5-oxo-5,7,8,9-tetrahydro-6H-pyrimido[4,5-e][1,4]diazepin-6-yl)phenyl)-2-methylpropyl)(methyl) carbamate], greater than 3000 nM; in that of `CCNc1ncc2c(n1)N(C)CCN(c1cccc(CN(C)C(=O)OC(C)(C)C)c1)C2=O` [Example 94, tert-butyl (3-(2-(ethylamino)-9-methyl-5-oxo-5,7,8,9-tetrahydro-6H-pyrimido[4,5-e][1,4]diazepin-6-yl)benzyl)(methyl) carbamate], greater than 3000 nM.
Next, `CCNc1ncc2c(n1)N(C)CCN(c1cccc(OC3CCN(C(=O)OC(C)(C)C)C3)c1)C2=O` (centres unmarked) [Example 95, tert-butyl 3-(3-(2-(ethylamino)-9-methyl-5-oxo-5,7,8,9-tetrahydro-6H-pyrimido[4,5-e][1,4]diazepin-6-yl)phenoxy)pyrrolidine-1-carboxylate]: greater than 3000 nM.
Next, `CCNc1ncc2c(n1)N(C)CCN(c1cccc(COC3(c4ccccc4)CCN(C(=O)OC(C)(C)C)CC3)c1)C2=O` [Example 96, tert-butyl 4-((3-(2-(ethylamino)-9-methyl-5-oxo-5,7,8,9-tetrahydro-6H-pyrimido[4,5-e][1,4]diazepin-6-yl)benzyl)oxy)-4-phenylpiperidine-1-carboxylate]: greater than 3000 nM; `CCNc1ncc2c(n1)N(C)CCN(c1cccc(-c3nnc(C)o3)c1)C2=O` [Example 97, 2-(ethylamino)-9-methyl-6-(3-(5-methyl-1,3,4-oxadiazol-2-yl)phenyl)-6,7,8,9-tetrahydro-5H-pyrimido[4,5-e][1,4]diazepin-5-one]: less than 100 nM.
For `Cc1nnc(-c2cccc(N3CCN(C)c4nc(NCC(C)C)ncc4C3=O)c2)o1` [Example 98, 2-(isobutylamino)-9-methyl-6-(3-(5-methyl-1,3,4-oxadiazol-2-yl)phenyl)-6,7,8,9-tetrahydro-5H-pyrimido[4,5-e][1,4]diazepin-5-one], the Ki was greater than 3000 nM.
Next, `COCCNc1ncc2c(n1)N(C)CCN(c1cccc(-c3nnc(C)o3)c1)C2=O` [Example 99, 2-((2-methoxyethyl)amino)-9-methyl-6-(3-(5-methyl-1,3,4-oxadiazol-2-yl)phenyl)-6,7,8,9-tetrahydro-5H-pyrimido[4,5-e][1,4]diazepin-5-one]: greater than 3000 nM.
Next, `CNc1ncc2c(n1)N(C)CCN(c1cccc(-c3nnc(C)o3)c1)C2=O` [Example 100, 9-methyl-6-(3-(5-methyl-1,3,4-oxadiazol-2-yl)phenyl)-2-(methylamino)-6,7,8,9-tetrahydro-5H-pyrimido[4,5-e][1,4]diazepin-5-one]: 100 to 500 nM; `Cc1nnc(-c2cccc(N3CCN(C)c4nc(N)ncc4C3=O)c2)o1` [Example 101, 2-amino-9-methyl-6-(3-(5-methyl-1,3,4-oxadiazol-2-yl)phenyl)-6,7,8,9-tetrahydro-5H-pyrimido[4,5-e][1,4]diazepin-5-one]: 500 to 3000 nM; `Cc1nnc(-c2cccc(N3CCN(C)c4nc(NCc5ccccc5)ncc4C3=O)c2)o1` [Example 102, 2-(benzylamino)-9-methyl-6-(3-(5-methyl-1,3,4-oxadiazol-2-yl)phenyl)-6,7,8,9-tetrahydro-5H-pyrimido[4,5-e][1,4]diazepin-5-one]: greater than 3000 nM.
In the case of `Cc1nnc(-c2cccc(N3CCN(C)c4nc(NC5CCCCC5)ncc4C3=O)c2)o1` [Example 103, 2-(cyclohexylamino)-9-methyl-6-(3-(5-methyl-1,3,4-oxadiazol-2-yl)phenyl)-6,7,8,9-tetrahydro-5H-pyrimido[4,5-e][1,4]diazepin-5-one] it was greater than 3000 nM; in that of `Cc1nnc(-c2cccc(N3CCN(C)c4nc(N(C)Cc5ccccc5)ncc4C3=O)c2)o1` [Example 104, 2-(benzyl(methyl)amino)-9-methyl-6-(3-(5-methyl-1,3,4-oxadiazol-2-yl)phenyl)-6,7,8,9-tetrahydro-5H-pyrimido[4,5-e][1,4]diazepin-5-one], greater than 3000 nM.
For `Cc1nnc(-c2cccc(N3CCN(C)c4nc(NCCc5ccccc5)ncc4C3=O)c2)o1` [Example 105, 9-methyl-6-(3-(5-methyl-1,3,4-oxadiazol-2-yl)phenyl)-2-(phenethylamino)-6,7,8,9-tetrahydro-5H-pyrimido[4,5-e][1,4]diazepin-5-one], the Ki was greater than 3000 nM.
Next, `Cc1nnc(-c2cccc(N3CCN(C)c4nc(N(C)Cc5ccccn5)ncc4C3=O)c2)o1` [Example 106, 9-methyl-2-(methyl (pyridin-2-ylmethyl)amino)-6-(3-(5-methyl-1,3,4-oxadiazol-2-yl)phenyl)-6,7,8,9-tetrahydro-5H-pyrimido[4,5-e][1,4]diazepin-5-one]: greater than 3000 nM; `CCNc1ncc2c(n1)N(CC)CCN(c1cccc(-c3nnc(C)o3)c1)C2=O` [Example 107, 9-ethyl-2-(ethylamino)-6-(3-(5-methyl-1,3,4-oxadiazol-2-yl)phenyl)-6,7,8,9-tetrahydro-5H-pyrimido[4,5-e][1,4]diazepin-5-one]: 100 to 500 nM; `CCNc1ncc2c(n1)N(C)CCN(c1cccc(-c3noc(C)n3)c1)C2=O` [Example 108, 2-(ethylamino)-9-methyl-6-(3-(5-methyl-1,2,4-oxadiazol-3-yl)phenyl)-6,7,8,9-tetrahydro-5H-pyrimido[4,5-e][1,4]diazepin-5-one]: 100 to 500 nM.
Next, `CCNc1ncc2c(n1)N(C)CCN(c1cccc(OC)c1)C2=O` [Example 109, 2-(ethylamino)-6-(3-methoxyphenyl)-9-methyl-6,7,8,9-tetrahydro-5H-pyrimido[4,5-e][1,4]diazepin-5-one]: 500 to 3000 nM; `CCNc1ncc2c(n1)N(C)CCN(c1cccc(C#N)c1)C2=O` [Example 110, 3-(2-(ethylamino)-9-methyl-5-oxo-5,7,8,9-tetrahydro-6H-pyrimido[4,5-e][1,4]diazepin-6-yl)benzonitrile]: greater than 3000 nM; `CCNc1ncc2c(n1)N(C)CCN(c1cccc(O[Si](C)(C)C(C)(C)C)c1)C2=O` [Example 111, 6-(3-((tert-butyldimethylsilyl)oxy)phenyl)-2-(ethylamino)-9-methyl-6,7,8,9-tetrahydro-5H-pyrimido[4,5-e][1,4]diazepin-5-one]: greater than 3000 nM.
Turning to `CCNc1ncc2c(n1)N(C)CCN(c1cccc(Br)c1)C2=O` [Example 112, 6-(3-bromophenyl)-2-(ethylamino)-9-methyl-6,7,8,9-tetrahydro-5H-pyrimido[4,5-e][1,4]diazepin-5-one], the Ki is greater than 3000 nM.
